{
  "source": "patent US20180344646A1",
  "about": "“AMORPHOUS DISPERSION GRANULES AND ORAL DOSAGE FORMS” (PATHEON DEVELOPMENT SERVICES INC., priority 2015, published 2018)",
  "assay": "In vitro non-sink dissolution, gastric-to-intestinal media transfer test",
  "format": "physicochemical",
  "design": "AUC free: concentration or dose not given beside the values; AUC total: unit not given here",
  "conditions": "for AUC free: free drug; for AUC total: non-sink",
  "key": {"[1]": {"conditions": "Table 5 (nifedipine), Fasted Simulated Gastric (0.1 N HCl)"}, "[2]": {"conditions": "Table 5 (nifedipine), Fasted Simulated Intestinal (FaSSIF, pH 6.8)"}},
  "data": [
    {"smiles": "COc1ccc2c(c1)c(CC(=O)O)c(C)n2C(=O)c1ccc(Cl)cc1", "note": "[indomethacin crystalline API, indomethacin]", "values": [
      {"measurement": "AUC free", "setting": "Table 2, Fasted Simulated Gastric (0.1 N HCl)", "value": 0.0},
      {"measurement": "AUC total", "setting": "Table 2, Fasted Simulated Gastric (0.1 N HCl), 2 mg indomethacin per mL", "value": 1020.4},
      {"measurement": "AUC free", "setting": "Table 2, Fasted Simulated Intestinal (FaSSIF, H 6.8)", "value": 63324.8},
      {"measurement": "AUC total", "setting": "Table 2, Fasted Simulated Intestinal (FaSSIF, H 6.8), 1 mg indomethacin per mL", "value": 81054.9},
      {"measurement": "AUC free", "setting": "[1]", "value": 68.9},
      {"measurement": "AUC total", "setting": "[1]", "value": 483.4},
      {"measurement": "AUC free", "setting": "[2]", "value": 1349.5},
      {"measurement": "AUC total", "setting": "[2]", "value": 2810.0}
    ]}
  ]
}
